Test results from US10342804B2, “Steroid compound for use in the treatment of hepatic encephalopathy” (Umecrine Cognition AB, priority 2014, dated 2019).
Where two headings read alike, the source gives them in different places.

Experiments:
[1] = molecular target: T1, human α1β2γ2L GABAA receptors (Homo sapiens, UniProt P14867+P47870); experiment: Whole-cell voltage-clamp electrophysiology, HEK-293 cells expressing α1β2γ2L GABAA receptors; format: cell-based; conditions: for GAMSA effect: α1β2γ2L, 1 μM GAMSA, 30 μM GABA, AUC
T1 construct: expressed in transfected cells; host or cells: HEK-293, permanently transfected
Experimental: (§1) For electrophysiology measurements the Dynaflow® system with the Resolve chip was used (Cellectricon, Göteborg, Sweden). HEK-293 cells were permanently transfected with vectors including the human CMV promoter for constitutive expression of the human α5, β3, and γ2L GABAA receptor subunits (α5β3γ2L) or the human α1, β2, and γ2L GABAA receptor subunits (α1β2γ2L). The cell lines used were selected for good reactivity to GABA and to THDOC. Before measurements cells were incubated for 15 min at 37° C. in 95% air+5% CO2 in extracellular solution (EC) containing the following: 137 mM NaCl, 5.0 mM KCl, 1.0 mM CaCl2, 1.2 mM MgCl2, 10 mM HEPES, and 10 mM glucose, 0.1% DMSO pH 7.4. Thereafter, detached cells were added to the EC solution in the Dynaflow chip bath.
(§2) Whole-cell voltage-clamp recordings were made at room temperature (21-23° C., −17 mV with compensation for liquid junction potential as in Haage et al., 2002; Neher, 1992). Command pulses were generate and data collected by PClamp 9.0 software, DigiData 1322A converter, and AxonPatch 200B (Axon Instruments, Foster City, Calif.). Patch electrodes (2-6 MΩ) were filled with intracellular solution (IC) including: 140 mM Cs-gluconate, 3.0 mM NaCl, 1.2 mM MgCl2, 10 mM HEPES, 1.0 mM EGTA, 2 mM Mg-ATP, 0.1% DMSO, pH 7.2.
(§3) THDOC and 3α-ethynyl-3β-hydroxyandrostan-17-one oxime were dissolved in dimethyl sulfoxide (DMSO) and thereafter diluted with EC solution to include 0.1% DMSO.
(§4) Different protocols were used for different electrophysiology measurements. As α1β2γ2L-GABAA receptors in vivo are present within the synapse a condition resembling that situation, a short application (40 ms) of a high GABA concentration (30 μM), was used. Contrary, α5β3γ2L-GABAA receptors are present extrasynaptically, thus the conditions used were long exposures (6 s) to a low GABA concentration (0.3 μM). The EC75 concentration of THDOC was used, i.e. 100 nM with studies of α1β2γ2L and 200 nM when α5β3γ2L expressing cells were evaluated. With both cell types a pre-exposure with THDOC or THDOC plus 3α-ethynyl-3β-hydroxyandrostan-17-one oxime was used before application of GABA.
(§5) Steroid effects in presence of GABA were normalized to controls in order to avoid the effects of inter- and intracellular variation in the measured parameters, each cell was used as its own control and the area under the curve (AUC) was analyzed.

blood ammonia [2] = experiment: Blood ammonia, hyperammonemic rats (Example 12); format: in vivo, rat; conditions: 20 mg/Kg
Experimental: (§6) Male Wistar rats (140-160 g) were made hyperammonemic by feeding them a diet containing ammonium acetate (30% by weight) (Felipo et al, European Journal of Biochemistry, 1988, 176, 567-571).
(§7) 3α-ethynyl-3β-hydroxyandrostan-17-one oxime in sesame oil was administered by subcutaneous injections in the back of the rats, once daily. Two different sets of experiments were performed in hyperammonemic rats. In the first set four groups of rats were used: 1) control rats injected with vehicle; 2) hyperammonemic rats injected with vehicle; 3) control rats injected with 20 mg/Kg of 3α-ethynyl-3β-hydroxyandrostan-17-one oxime and 4) hyperammonemic rats injected with 20 mg/Kg of 3α-ethynyl-3β-hydroxyandrostan-17-one oxime.
Blood ammonia was measured using the kit II Ammonia Arkray test (PocketChem BA, Arkray) using 20 μL of fresh blood following manufacturer's specifications.

blood ammonia [3] = experiment: Ammonia determination in blood (Example 5); format: in vivo, rat
Text: The study was divided into two series with animals (male Wistar rats), each series included the following groups; Controls treated with vehicle (CV, n=8 per series), Controls treated with 3α-ethynyl-3β-hydroxyandrostan-17-one oxime (C+GAM, n=8 per series), hyperammonemic rats treated with vehicle (HAV, n=8 per series), hyperammonemic rats treated with 3α-ethynyl-3β-hydroxyandrostan-17-one oxime (HA+GAM, n=8 per series). The once daily treatment with 3α-ethynyl-3β-hydroxyandrostan-17-one oxime at 20 mg/kg or with vehicle was performed with subcutaneous injections of 1 ml/kg around 9 a.m. Treatment started one week after starting with the ammonium containing diet and continued for the whole experimental period.
Blood was obtained from the tail of the rats (from Example 2) in the end of second week of ammonia treatment and first week of 3α-ethynyl-3β-hydroxyandrostan-17-one oxime treatment and also from the neck during the animal sacrifice. To obtain the plasma it was added EDTA […] and centrifuged at 1500 r.p.m during 5 minutes.
Ammonia concentration in blood samples was measured using the Pocket chem BA (Woodley Equipment Company Ltd, United Kingdom), an ammonia analyzer. The device enables immediate testing and delivers results in 3 minutes and 20 s. It also eliminates the need for pre-processes such as centrifugal separation.

[4] = molecular target: T2, human α5β3γ2L GABAA receptors (Homo sapiens, UniProt P28472+P31644); experiment: Whole-cell voltage-clamp electrophysiology, HEK-293 cells expressing α5β3γ2L GABAA receptors; format: cell-based; conditions: for GAMSA effect: α5β3γ2L, 1 μM GAMSA, 0.3 μM GABA, AUC
T2 construct: expressed in transfected cells; host or cells: HEK-293, permanently transfected
Experimental: as §1, §2, §3, §4, §5

[5] = Exposure in plasma and brain tissue, hyperammonemic rats (Example 13); format: in vivo, rat; conditions: for Total concentration in plasma: at the time for behavioral testing
Experimental: as §6, §7
In the second set of experiments five groups of rats were used: 1) control rats injected with vehicle; 2) hyperammonemiac rats injected with vehicle and 3-5) hyperammonemic rats injected with 3, 10 or 20 mg/Kg of 3α-ethynyl-3β-hydroxyandrostan-17-one oxime. In each experiment 6-8 rats per group were used.
(§8) At the end of the treatment period plasma was collected from the tail vein, and after sacrifice by decapitation brains were collected and immediately frozen on dry ice. For analysis of 3α-ethynyl-3β-hydroxyandrostan-17-one oxime exposure, brain tissue was homogenized with a 1:4 ratio of tissue: PBS (pH 7.4) and then extracted with a 2-fold volume of methanol:acetonitrile (1:1), while plasma was protein-precipitated with a 3-fold volume with acetonitrile. Analyses were performed by Waters ACQUITY UPLC+Waters XEVO-TQS triple quadrupole mass spectrometer (Admescope Oy, Oulu, Finland). For calculations of the amount of free 3α-ethynyl-3β-hydroxyandrostan-17-one oxime exposure in the brain the fraction unbound (Fb) in brain homogenates were determined by dialysis, Fub in HA=[…] and Fub in PCS=1.43% (Admescope Oy, Oulu, Finland).

[6] = Fraction unbound in brain homogenates by dialysis; format: in vitro ADME; conditions: rat, brain homogenate, read-out: Fraction unbound (Fub) in brain homogenates
Experimental: as §8

[7] = HEK293, read-out: Inhibition of the THDOC enhancement of GABA
[8] = no THDOC (GABA sole activator), listed as GAMSA

T2 sequence (P31644 32-462): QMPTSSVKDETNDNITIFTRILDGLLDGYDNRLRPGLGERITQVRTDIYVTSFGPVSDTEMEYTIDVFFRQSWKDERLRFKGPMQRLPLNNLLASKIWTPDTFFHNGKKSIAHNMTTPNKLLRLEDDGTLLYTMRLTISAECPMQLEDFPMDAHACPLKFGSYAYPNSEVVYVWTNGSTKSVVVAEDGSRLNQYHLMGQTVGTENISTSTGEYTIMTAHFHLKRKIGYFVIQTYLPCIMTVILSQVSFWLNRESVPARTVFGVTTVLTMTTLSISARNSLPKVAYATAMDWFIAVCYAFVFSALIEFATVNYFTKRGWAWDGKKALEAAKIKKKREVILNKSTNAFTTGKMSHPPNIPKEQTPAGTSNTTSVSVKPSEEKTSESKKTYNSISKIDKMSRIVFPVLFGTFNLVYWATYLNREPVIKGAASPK
T2 sequence (P28472 26-473): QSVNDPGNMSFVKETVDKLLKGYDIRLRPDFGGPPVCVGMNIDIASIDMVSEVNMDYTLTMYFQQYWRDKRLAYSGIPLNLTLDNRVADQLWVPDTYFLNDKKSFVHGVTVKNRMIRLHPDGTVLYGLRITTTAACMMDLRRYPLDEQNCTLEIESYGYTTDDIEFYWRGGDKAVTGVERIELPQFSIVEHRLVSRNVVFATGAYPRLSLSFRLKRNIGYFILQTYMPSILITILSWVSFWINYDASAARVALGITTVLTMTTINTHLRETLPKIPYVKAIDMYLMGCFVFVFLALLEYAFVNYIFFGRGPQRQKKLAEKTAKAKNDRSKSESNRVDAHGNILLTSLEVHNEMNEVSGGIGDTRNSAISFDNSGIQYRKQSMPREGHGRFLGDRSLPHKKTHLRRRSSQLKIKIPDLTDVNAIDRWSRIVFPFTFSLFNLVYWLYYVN
T2 sequence (P18507 40-475 partner): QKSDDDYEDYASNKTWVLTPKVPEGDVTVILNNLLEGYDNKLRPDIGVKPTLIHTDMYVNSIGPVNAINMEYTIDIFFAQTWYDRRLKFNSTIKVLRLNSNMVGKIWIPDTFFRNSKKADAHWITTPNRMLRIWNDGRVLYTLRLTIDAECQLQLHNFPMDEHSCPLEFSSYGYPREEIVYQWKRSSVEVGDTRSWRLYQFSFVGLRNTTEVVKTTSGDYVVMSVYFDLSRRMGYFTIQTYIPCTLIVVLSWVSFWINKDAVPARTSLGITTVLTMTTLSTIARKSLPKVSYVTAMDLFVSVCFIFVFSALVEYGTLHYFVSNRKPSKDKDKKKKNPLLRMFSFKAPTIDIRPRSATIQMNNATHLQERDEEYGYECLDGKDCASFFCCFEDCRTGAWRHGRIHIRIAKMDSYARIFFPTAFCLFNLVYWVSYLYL
T1 sequence (P14867 28-456): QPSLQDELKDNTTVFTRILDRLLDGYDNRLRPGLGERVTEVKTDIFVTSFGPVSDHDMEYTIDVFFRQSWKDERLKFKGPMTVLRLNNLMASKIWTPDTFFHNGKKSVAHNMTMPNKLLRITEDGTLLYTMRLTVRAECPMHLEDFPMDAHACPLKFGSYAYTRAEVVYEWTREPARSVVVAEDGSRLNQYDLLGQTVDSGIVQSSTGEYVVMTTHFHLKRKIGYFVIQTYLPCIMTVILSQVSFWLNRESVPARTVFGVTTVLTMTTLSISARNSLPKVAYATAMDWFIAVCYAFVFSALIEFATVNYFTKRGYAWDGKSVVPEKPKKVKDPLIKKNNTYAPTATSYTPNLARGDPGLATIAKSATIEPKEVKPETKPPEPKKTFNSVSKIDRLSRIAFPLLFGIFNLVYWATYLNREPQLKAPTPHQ
T1 sequence (P47870 25-512 limits assumed): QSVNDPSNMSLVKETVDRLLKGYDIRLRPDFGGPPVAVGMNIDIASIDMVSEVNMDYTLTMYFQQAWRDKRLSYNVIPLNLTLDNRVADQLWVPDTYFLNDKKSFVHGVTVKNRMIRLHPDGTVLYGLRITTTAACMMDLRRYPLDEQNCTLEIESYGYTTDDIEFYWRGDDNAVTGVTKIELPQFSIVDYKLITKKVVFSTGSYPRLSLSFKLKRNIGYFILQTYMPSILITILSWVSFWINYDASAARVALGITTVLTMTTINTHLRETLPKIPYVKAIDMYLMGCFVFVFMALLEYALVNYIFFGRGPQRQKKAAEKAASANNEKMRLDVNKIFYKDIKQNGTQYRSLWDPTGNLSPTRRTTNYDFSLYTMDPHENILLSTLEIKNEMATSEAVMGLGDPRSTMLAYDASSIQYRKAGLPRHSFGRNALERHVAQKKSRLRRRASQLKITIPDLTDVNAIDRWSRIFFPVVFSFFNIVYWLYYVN
T1 sequence (P18507 40-475 partner): as the sequence (P18507 40-475 partner) above

Work on C#C[C@]1(O)CC[C@@]2(C)C(CC[C@@H]3[C@@H]2CC[C@]2(C)/C(=N\O)CC[C@@H]32)C1 (stereo partly drawn) [3α-ethynyl-3β-hydroxyandrostan-17-one oxime] yielded an inhibition at 1 µM [1, 7] of 29 ± 4.7%, a GAMSA effect ([1]; 100 nM THDOC) of −29 ± 4.7% and a GAMSA effect ([1]; no THDOC (GABA sole activator)) of −3.1±1.7%. It also gave a GAMSA effect [1, 8] of −3.1 ± 1.7%, a Blood ammonia levels (blood ammonia [2]) of 139 ± 14 µM and a Blood ammonia levels (blood ammonia [3]; control rats treated with 20 mg/kg s.c. once daily) of 55 ± 7 µM. For the same compound, the Blood ammonia levels (blood ammonia [3]; hyperammonemic rats treated with 20 mg/kg s.c. once daily) was 139 ± 15 µM, the inhibition at 1 µM [4, 7] was 49 ± 4.7% and the GAMSA effect ([4]; 200 nM THDOC) was −49 ± 4.7%. For the same compound, the GAMSA effect ([4]; no THDOC (GABA sole activator)) was −3.8±1.5%, the GAMSA effect [4, 8] was −3.8 ± 1.5% and the “Unbound concentration in the brain tissue” value (“Unbound concentration” below) ([5]; 3 mg/Kg s.c. once daily) was 6.1 ± 1.4 nmol/kg. The “Total concentration in plasma” value ([5]; 3 mg/Kg s.c. once daily) was 0.34 ± 0.03 µM, the “Unbound concentration” value ([5]; 10 mg/Kg s.c. once daily) was 11.6 ± 1.4 nmol/kg and the “Total concentration in plasma” value ([5]; 10 mg/Kg s.c. once daily) was 1.08 ± 0.11 µM. The “Unbound concentration” value ([5]; 20 mg/Kg s.c. once daily) was 23 ± 5 nmol/kg, the “Total concentration in plasma” value ([5]; 20 mg/Kg s.c. once daily) was 1.95 ± 0.61 µM and the fraction unbound ([6]; pH 7.4, HA rats) was 0.007. The fraction unbound ([6]; pH 7.4, PCS rats) was 0.0143.
